Test results published in patent publication US20200002303A1, “C-GLYCOSIDE COMPOUNDS USEFUL FOR TREATING DISEASE” (Fimbrion Therapeutics, Inc., priority 2016, published 2020).

Legend:
[1] = target: T1, FimH (Escherichia coli, UniProt Q1R2J4); format: cell-based; details: concentration reducing bacterial agglutination of guinea pig red blood cells by greater than 90%; UTI89 bacteria
T1 construct: performed with UTI89 bacteria and guinea pig red blood cells; endogenous in cells; host or cells: UTI89 bacteria (whole cells, type 1 piliated)
Method: The hemagglutination inhibition (HAI) assay was performed with UTI89 bacteria and guinea pig red blood cells, as previously described (S. J. Hultgren, W. R. Schwan, A. J. Schaeffer, J. L. Duncan Infect. Immun. 1986, 54, 613-620).

[2] = test system: UTI89 bacteria; test: Biofilm inhibition assay with UTI89 bacteria; format: cell-based; details: read-out: Biofilm prevention IC50
Method: The biofilm inhibition assay was performed with UTI89 bacteria as previously described (L. Cegelski, J. S. Pinkner, N. D. Hammer, C. K. Cusumano, C. S. Hung, E. Chorell, V. Aberg, J. N. Walker, P. C. Seed, F. Almqvist, M. R. Chapman, S. J. Hultgren Nature Chem. Biol. 2009, 5, 913-919). Compounds not listed were not tested.

[3] = target: T2, FimHL (Escherichia coli, UniProt P08191); test: Differential scanning fluorimetry (DSF) with purified FimHL; format: binding; details: FimHL 10 μM with mannoside 100 μM, SYPRO Orange, HEPES pH 7.5; Tm from Boltzmann fit
T2 construct: Purified FimHL (10 μM) in the absence or presence of mannoside (100 μM)
Method: Purified FimHL (10 μM) in the absence or presence of mannoside (100 μM) was combined with 5×SYPRO Orange in a 50 μl reaction mixture buffered in 20 mM HEPES pH 7.5, 150 mM NaCl (HBS) and 0.4% DMSO. Binding equilibria were established by allowing the reaction mixtures to incubate at 23° C. for 30 min. These reaction mixtures were then placed in 96-well clear-bottom PCR plates and subjected to a melt curve from 20-90° C. in 0.5° C. increments of 15 seconds, each followed by a fluorescence read of the “HEX” channel in a Bio-Rad CFX96 thermocycler (Bio-Rad, Hercules, Calif.). Melt curves were fitted to the Boltzmann equation (y=A2+(A1−A2)/(1+exp((x−xo)/dx)) where xo is the Tm) to determine the melting temperature (Tm) using GraphPad Prism 6 (San Diego Calif.). Melting temperatures are represented as the mean and standard error of two biological replicates, each of which consisted of three technical replicates. Compounds not listed were not tested.

SMILES: Cc1cc(-c2ccc3ccnc(N)c3c2)ccc1[C@@H](O)[C@H]1O[C@H](CO)[C@@H](O)[C@H](O)[C@@H]1O [Example 3, (2R,3S,4S,5S,6R)-2-((R)-(4-(1-aminoisoquinolin-7-yl)-2-methylphenyl)(hydroxy)methyl)-6-(hydroxymethyl)tetrahydro-2H-pyran-3,4,5-triol]
- HAI titer EC>90 [1]: 0.006 µM
- IC50 [2]: 40 nM
- DSF Melting Temp [3]: 77.7 °C

SMILES: Cc1cc(-c2ccc3c(c2)C(=O)NCC3)ccc1[C@@H](O)[C@H]1O[C@H](CO)[C@@H](O)[C@H](O)[C@@H]1O [Example 4, 7-(4-((R)-hydroxy((2R,3S,4S,5S,6R)-3,4,5-trihydroxy-6-(hydroxymethyl)tetrahydro-2H-pyran-2-yl)methyl)-3-methylphenyl)-3,4-dihydroisoquinolin-1 (2H)-one]
- HAI titer EC>90 [1]: 0.008 µM
- IC50 [2]: 40 nM
- DSF Melting Temp [3]: 76.06 °C
